PMC11926880, “Procognitive Potential of Neuroprotective Triazine 5-HT6 Receptor Antagonists Tested on Chronic Activity In Vivo in Rats: Computer-Aided Insight into the Role of Chalcogen-Differences on the Pharmacological Profile” (ACS Chemical Neuroscience, 2025)
Like-named read-outs stand apart in the source and are kept apart here.

What was measured:
[1] = tested on: SH-SY5Y cells; assay: MTS cell viability assay 27 h; type: cell-based, human; settings: for IC50: SH-SY5Y
Procedure: This study used the human neuroblastoma cell line SH-SY5Y (ATCC no. CRL-2266) to investigate the effect on the neuronal cells. The cells (8 × 10^3 cells/100 μL/well) were seeded in transparent 96-well plates (Thermo Scientific, Nunc, no. 161093) in DMEM/F12 (Gibco, no. 11039021) supplemented with 10% FBS (Gibco, no. 10500-064) and cultured overnight. […] Treatment with the compounds was performed for 27 h. After incubation, the cell viability was examined using an MTS-based CellTiter96 AQueous One Solution Cell Proliferation Assay (Promega, Madison, WI, USA) following the manufacturer’s protocol. Briefly, 20 μL of MTS solution was pipetted into each well containing 100 μL of culture or culture medium (negative control) and incubated at 37 °C for 1 h. The absorbance was measured at 490 nm using a Tecan Spark’s multimode plate reader (Tecan, Männedorf, Switzerland). A reference wavelength of 630 nm was used to subtract the background.

[2] = tested on: SH-SY5Y cells; assay: qRT-PCR of neurodegeneration-associated genes; type: cell-based, human; settings: 10 and 50 μM, 24 h
[3] = tested on: NRF2; assay: Western blot for NRF2 (total and nuclear extracts); type: cell-based, human; settings: 10 μM, 24 h
[4] = tested on: HT-22 cell line; assay: protection against Aβ1–42, ROS (CellROX); type: cell-based, mouse; settings: 10 μM pretreatment 1 h, Aβ1–42 35 μM 16 h
Procedure: Cells were cultured in Dulbecco’s modified Eagle’s Medium-high glucose (DMEM, GlutaMAX ThermoFisher) supplemented with 10% inactivated fetal bovine serum heat (Thermo Fisher), 100 IU/mL penicillin (Merck), and 100 μg/mL streptomycin (Merck). Cells were cultured in flasks (area 175 cm^2, Nunc) and incubated at 37 °C, 5% CO2. To measure the neuroprotective effect against Aβ1–42, cells were placed in a 96-well culture plate (5 × 10^3 cells per well, Falcon).
Stock solutions were prepared at a concentration of 10 mM for the tested compounds. A minimum of 1 mg of each tested compound was weighed and dissolved in an appropriate volume of dimethyl sulfoxide (DMSO). Serial dilutions were prepared in DMSO, and then, the diluted compounds were transferred to phosphate-buffered saline (PBS), mixed, and put into a medium with adherent cells. Before the assays, eventual precipitation or opalescence was checked.
Aβ1–42 (Merck) was initially dissolved in 1,1,1,3,3,3- hexafluor-2-propanol (Merck). […] After this time, the Aβ1–42 solution was evaporated by using nitrogen gas. Next, DMSO was added to obtain a 2 mM stock solution of β-amyloid. […]
After the end of incubation with the tested compounds, the supernatant was removed, and cells were incubated with CellROX (5 μM) in DMEM FluoroBrite (ThermoFisher) for 1 h at 37 °C. The results are expressed as a percentage of control (Aβ1–42).

[5] = tested on: rats; assay: NORT after 21 day administration, discrimination index; type: in vivo, rat; settings: 21 days; for reversal of (+)MK-801-induced memory disturbances (DI): (+)MK-801 0.1 mg/kg
Procedure: Standard laboratory food (LSM-B) and filtered water as well as environment enrichment were freely available. Animals were randomly divided into treatment groups using a computer-based random order generator. All of the experiments were performed by two observers unaware of the treatment applied between 9:00 and 14:00 on separate groups of animals.
In the NOR test (NORT), rats were randomly divided into experimental groups (n = 8/group). […] All compounds were prepared immediately before administration and were injected intraperitoneally (i.p.) in a constant volume of 2 mL/kg. […] The control group received 1% Tween 80 on the same schedule.
The test was carried out according to the method described by Ennaceur.[46] NORT was conducted in two black-painted wood boxes (60 cm × 60 cm × 60 cm). A video camera mounted above the boxes recorded all experiments. Two days before the test, the rats were placed in the empty experimental boxes for 5 min as a habituation to the test area. On the third day, the test was performed in 2 trials lasting for 3 min at one-hour intervals. First session, familiarization (T1) with two identical objects (A1 and A2) located in the opposite corners of the boxes, approximately 10 cm from the walls, and second trial, recognition (T2) with one familiar (A) and one novel object (B). Metal cans and glass jars with sand were used as the objects. The boxes were cleaned and dried after each measurement. The exploration time (E) of the objects (such as looking, licking, sniffing, or touching while sniffing) during T2 was measured, and the discrimination index (DI) was calculated according to the following formula: DI = (EB – EA)/(EA + EB).
The normality of data distribution and the homogeneity of variance were checked using the Shapiro–Wilk’s test and Levene’s test, respectively. All behavioral results are shown as the means ± SEM.

[6] = design: method as in PMID 38190615, PMID 35228010; settings: cited from earlier work
[7] = design: method as in PMID 38190615, PMID 35228010; settings: LC/MS after biotransformation in rLMs; cited from earlier work
[8] = tested on: HepG2; design: method as in PMID 38190615, PMID 35228010; settings: tested at 0.1–100 μM; cited from earlier work
[9] = design: method as in PMID 38190615, PMID 35228010; settings: AMES test; cited from earlier work
[10] = tested on: ABCB1; design: method as in PMID 35228010; settings: previous evidence; cited from earlier work
[11] = biological target: 5-HT1AR; settings: read-out: radioligand binding assay Ki; cloned receptors; cited from earlier work

What does the source list for CN1CCN(c2nc(N)nc(C(C)(C)Sc3ccc4ccccc4c3)n2)CC1 [WA-22, 4-(4-methylpiperazin-1-yl)-6-(2-(naphthalen-2-ylthio)propan-2-yl)-1,3,5-triazin-2-amine]?
IC50 ([1]; Homo sapiens, 27 h, read-out: IC50 x̅ ± SD, MTS, SH-SY5Y, 27 h of exposure): > 200 µM; effect on cell viability ([1]; all tested concentrations (0–50 μM), 27 h): did not affect cell viability; IC50 ([1]; read-out: IC50 x̅ ± SD, MTS, 27 h of exposure): 238 ± 15 µM; NRF2 transcription [2]: neither WA-22 nor PPK-32 were able to stimulate its transcription; expression of NQO1, SOD1, and HO1 [2]: induces the expression of the same genes, although with a lower significance and increase; expression of pro-inflammatory gene NFkB [2]: neither WA-22 nor PPK-32 were able to downregulate; NRF2 protein amount (total extract) ([3]; GAPDH loading control): protein amount was not modulated; NRF2 translocation from cytoplasm to nucleus ([3]; nuclear extracts, H3 loading control): effectively induce a shuffling of this protein inside the nucleus; decrease of ROS induced by Aβ [4]: only PPK-32 displayed the ability to decrease ROS; influence on memory compared to vehicle-treated rats (DI) ([5]; 1 mg/kg/day i.p., without (+)MK-801): No memory changing; reversal of (+)MK-801-induced memory disturbances (DI) ([5]; 1 mg/kg/day i.p.): significantly reversed; reversal of (+)MK-801-induced memory disturbances (DI) ([5]; 3 mg/kg/day i.p.): also observed for a dose of 3 mg/kg, but memory restoration was not at the same level as that of control rats; permeability PAMPA Pe [6]: 13.8 × 10^–6 cm/s; metabolic stability, % of remaining structure [7]: 74%; hepatotoxic (statistically significant HepG2 viability decrease) [8]: >25 µM; mutagenic [9]: no; ABCB1 inhibition [10]: potent inhibitor of ABCB1; Ki [11]: 2290 nM
